In patent publication US11014934B2, “Antiseptic drug” (AO “TATKHIMFARMPREPARATY”, priority 2017, dated 2021):

Key:
Assay type in all cases: cell-based
[1] = system: Cells of a light cow embryo (LCE); assay: State of the LCE cell monolayer with the drug without the virus
Method: Cells of a light cow embryo (LCE) are obtained from the Federal State Budgetary Institution “All-Russian Institute of Experimental Veterinary Medicine”, Moscow. Bovine rhinotracheitis virus (herpes virus family), vaccine strain “TK-A (VIEV)-V2” was obtained from the Federal State Budgetary Institution “All-Russian Institute of Experimental Veterinary Medicine”, Moscow.
The virus was incubated in the presence of compound I in a culture medium at 37° C. for one hour at various concentrations; miramistin and benzalkonium chloride served as control preparations. After incubation of the virus with substances, it was added to the cell culture, which was then incubated at 37° C., 5% CO2 for 72 hours.
Evaluation of the cytopathogenic effect was carried out visually by the state of the cell monolayer as compared with the controls (virus without incubation with the drug, the studied drug concentrations without the virus). The virus titer was calculated using the method of Reed-Muench in the modification of Ashmarin and expressed in Ig TCD50/ml.

Asp. fumigates = assay: Sensitivity of microscopic fungi in solution (colonies after exposure)
Method: (§1) For the preparation of inoculum, were respectively used pure (2-5) days cultures of yeast and mycelial fungi, grown on Saburo's dense nutrient broth. Inoculum for plating was prepared in different ways, depending on the type of fungi. Thus, yeast crops (C. albicans) were prepared by washing the culture from an agar stroke. Cultures of mycelial fungi (Rh. oryzae, Asp. fumigatus) were pre-degraded in a pounder. A suspension of microorganisms was prepared in a sterile isotonic sodium chloride solution, bringing the inoculum density to 5 UNITS (GISK [State Research Institute of Standardization and Control] named after L. A. Tarasevich) or according to the McFarland standard 1 UNIT with a concentration of at least 1×10^6 CFU/ml, considering that the size of the fungal elements is approximately 10 times the size of bacteria (this provided the possibility of creating a mixture of biocide with suspension, the concentration of microorganisms of the order of 1×10^5 CFU/ml).
(§2) Solutions of compound I, miramistin, and benzalkonium chloride in working concentrations (0.1%, 0.2%, 0.3%) were poured into sterile 0.9 ml tubes. 0.1 ml of microbial suspension was added to test tubes with disinfectant solutions and mixed by shaking for several seconds. The exposition lasted for 1, 5, and 15 minutes. After required temporary exposure for action of the disinfectant, 0.5 ml of the neutralizer solution was added and mixed by shaking.
(§3) Then, 0.1 ml of the mixture was inoculated on a dense nutrient medium and the plates with inoculate were placed in a thermostat with a temperature of 27° C. for (2-4) days for yeast and (5-7) days for mycelial fungi, respectively.
(§4) After the time required for the cultivation of microorganisms of this species, the results were counted according to the number of colonies grown on the Petri dish. In the absence of growth, the time for culturing microorganisms was increased by a factor of 2. The grown colonies were subjected to microscopy.
(§5) The tested substances were studied on clinical and archival strains of yeast and mycelial fungi. As comparison drugs, drugs commonly used in clinical practice were used: miramistin and benzalconium chloride. After the required exposure time for action of the disinfectant, a series of 0.1 ml mixture was aseptically plated on the surface of a dense nutrient medium in Petri dishes. After the time of cultivation of microorganisms, the results were counted according to the number of colonies grown on the Petri dish.

C. albicans = assay: as above
Method: as §1, §2, §3, §4, §5

clinical staphylococci = assay: MIC screening, summary for clinical staphylococci; settings: range over clinical staphylococci, one strain excepted
Method: A comparative assessment of the spectrum of antibacterial action was carried out on archival and clinical strains of gram-positive and gram-negative microorganisms in accordance with the [Opredeleniye chuvstvitel'nosti mikroorganizmov k antibakterial'nym preparatam (Metodicheskiye ukazaniya MUK 4.2.1890-04). Utverzhdeny i vvedeny v deystviye Glavnym gosudarstvennym sanitarnym vrachom Rossiyskoy Federatsii G. G. Onishchenko 04.03.2004 g. Determination of the sensitivity of microorganisms to antibacterial drugs (Guidelines MUK 4.2.1890-04). Approved and put into effect by the Chief State Sanitary Doctor of the Russian Federation G. G. Onishchenko on 4 Mar. 2004].
The value of the minimum inhibitory concentration (MIC) was determined by the method of serial dilutions on Müller-Hinton broth using 96-well sterile plates. […] The growth of cultures was assessed visually, comparing the growth of microorganisms in the presence of test compounds with the growth of culture without them. […] The first lowest concentration of the studied substance (from a series of consecutive dilutions), where bacterial growth is not visually determined, is considered to be the minimum inhibitory concentration (MIC). MIC was determined by the method of serial dilutions in broth with increment=2, so the differences of neighboring dilutions are not considered to be significant. […]

`CCCCCCCCCCCCCC(=O)NCCC[N+](C)(C)Cc1ccccc1.O.[Cl-]` [Miramistin, benzyldimethyl [3-(myristoylamino)propyl]-ammonium chloride monohydrate] was tested, and the “destruction of the monolayer, drug without the virus” value (shortened to “destruction … drug without the virus”) ([1]; 50 μg/ml) was “− (−0-10% destruction of the monolayer)”, the “destruction … drug without the virus” value ([1]; 100 μg/ml) was “− (−0-10% destruction of the monolayer)” and the “destruction … drug without the virus” value ([1]; 150 μg/ml) was “− (−0-10% destruction of the monolayer)”. The “destruction … drug without the virus” value ([1]; 200 μg/ml) was “− (−0-10% destruction of the monolayer)”, the “Number of colonies grown in a Petri dish” value (Asp. fumigates; exposure 1 min, 0.1% solution) was 20 and the “Number of colonies grown in a Petri dish” value (Asp. fumigates; exposure 1 min, 0.2% solution) was 10. For the same compound, the “Number of colonies grown in a Petri dish” value (Asp. fumigates; exposure 5 min, 0.1% solution) was 12, the “Number of colonies grown in a Petri dish” value (Asp. fumigates; exposure 15 min, 0.1% solution) was 2 and the “Number of colonies grown in a Petri dish” value (C. albicans; exposure 1 min, 0.1% solution) was 12. For the same compound, the “Number of colonies grown in a Petri dish” value (C. albicans; exposure 1 min, 0.2% solution) was 5 and the “Number of colonies grown in a Petri dish” value (C. albicans; exposure 5 min, 0.1% solution) was 7.
With `CCCCCCCCCCCC[N+](C)(C)Cc1cnc(C[N+](C)(C)CCCCCCCCCCCC)c2c1COC(CC)O2` (stereo not drawn) [Compound I, 5,8-(Bis(methylene (N, N-dimethyl-N-dodecylammonium))-2-ethyl-4H-[1,3]dioxino [4,5-c]pyridiniumdichloride] the MIC (clinical staphylococci) was 1 to 8 µg/mL, the “Number of colonies grown in a Petri dish” value (Asp. fumigates; exposure 5 min, 0.1% solution) was 1 and the “Number of colonies grown in a Petri dish” value (C. albicans; exposure 1 min, 0.1% solution) was 3. For the same compound, the “Number of colonies grown in a Petri dish” value (C. albicans; exposure 5 min, 0.1% solution) was 1.
